Non-standard residues stand in square brackets, D forms with d. Residues, ends and D or L forms follow the SMILES beside them. *: point of attachment. Dolaproine = CO[C@@H]([C@@H]1CCCN1)[C@@H](C)C(=O)O; Dil = CC[C@H](C)[C@H](NC)[C@@H](CC(=O)O)OC; X1 = C[C@@H](N*)[C@@H](O)c1ccccc1; NMeV = CN[C@H](C(=O)O)C(C)C
Assays:
PD-1 = PD-1 (Homo sapiens, UniProt Q15116); conditions: cited from earlier work
urothelial cancer = conditions: second line treatment; best supportive care 4.6 months; cited from earlier work
subjects = conditions: cited from earlier work
[1] = test system: acute myeloid leukemia (AML) at relapse; conditions: administered alone; cited from earlier work
[2] = test system: locally advanced or metastatic urothelial cancer; conditions: second line, KEYNOTE-045; cited from earlier work
[3] = Phase 1 study of EV: pharmacokinetics; type: in vivo, human; conditions: EV dosing on Days 1, 8 and 15 of every 28-day cycle
Description: Based on pharmacokinetic data from the phase 1 study, the half-life of EV is ˜1-2 days. […] Minimal (<50%) intra-cycle accumulation of MMAE was observed. It is anticipated that the dosing schedule in the study will maintain ADC exposures over each 28-day cycle, contributing to a favorable balance of activity and safety, as observed in the phase 1 trial.

Chain of PD-1 (Q15116 25-288): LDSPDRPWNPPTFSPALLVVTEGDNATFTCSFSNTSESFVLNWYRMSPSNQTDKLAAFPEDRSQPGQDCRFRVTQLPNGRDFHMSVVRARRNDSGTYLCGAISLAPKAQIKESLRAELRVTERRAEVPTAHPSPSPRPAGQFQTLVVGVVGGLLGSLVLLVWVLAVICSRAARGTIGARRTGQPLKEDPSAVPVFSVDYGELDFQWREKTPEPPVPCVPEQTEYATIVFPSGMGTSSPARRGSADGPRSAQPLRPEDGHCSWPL

In the case of “BGB-A317: anti-PD-1 monoclonal antibody in which the ability to bind Fc gamma receptor I is engineered out”, the “binding to PD-1” value (PD-1) is listed as “high affinity”.

In the case of `CC[C@]12C=CCN3CC[C@@]4(c5cc([C@@]6(C(=O)OC)C[C@@H]7C[C@@H](C(C)(F)F)CN(Cc8c6[nH]c6ccccc86)C7)c(OC)cc5N(C)[C@H]4[C@@](O)(C(=O)OC)[C@@H]1OC(C)=O)[C@@H]32` [Vinflunine, vinflunine], the “Median OS” value (urothelial cancer) is listed as 6.9 months and the “Cases of Posterior Reversible Encephalopathy Syndrome (PRES)” value (subjects; after administration of vinflunine) is listed as “have been observed”.

In the case of “CT-011: anti-PD-1 antibody, a humanized antibody”, the “response in acute myeloid leukemia (AML) at relapse” value [1] is given as “failed to show response”.

In the case of “pembrolizumab: humanized monoclonal IgG4 anti-PD-1 antibody”, the “Median OS” value [2] is listed as 10.3 months.

In the case of `CC[C@H](C)[C@@H]([C@@H](CC(=O)N1CCC[C@H]1[C@H](OC)[C@@H](C)C(=O)N[C@H](C)[C@@H](O)c1ccccc1)OC)N(C)C(=O)[C@@H](NC(=O)[C@@H](NC)C(C)C)C(C)C` [MMAE, monomethyl auristatin E, reference compound] (H-[NMeV]V[Dil][Dolaproine]-X1), the “intra-cycle accumulation of MMAE” value [3] is reported as < 50%.

For `CC(=O)O[C@@]12CO[C@@H]1C[C@H](O)[C@@]1(C)C(=O)[C@H](O)C3=C(C)[C@@H](OC(=O)[C@H](O)[C@@H](NC(=O)OC(C)(C)C)c4ccccc4)C[C@@](O)([C@@H](OC(=O)c4ccccc4)[C@H]21)C3(C)C` [Docetaxel, docetaxel], the “fluid retention following docetaxel therapy” value (subjects; in vivo) is listed as “Severe fluid retention has been reported”.

— patent US20230330251A1, “METHODS FOR TREATING CANCERS WITH ANTIBODY DRUG CONJUGATES (ADC) THAT BIND TO 191P4D12 PROTEINS” (AGENSYS, INC., priority 2020, published 2023)
